Measured values taken from patent US20020142008A1, “Immunogenic pili presenting foreign peptides, their production and use” (priority 2000, published 2002).
Ends that are not written are not given here.

Assays:
[1] = system: experimental pyelonephritis; experiment: BALB/c murine model of experimental pyelonephritis, F13 peptide conjugate vaccines; format: in vivo; conditions: BALB/c mice, serial parenteral administration of vaccine, intravesicular challenge
[2] = system: homologous piliated Escherichia coli challenge strains (renal and/or bladder colonization); experiment: Intravesicular BALB/c experimental model of pyelonephritis and cystitis, pilin A synthetic peptide conjugate vaccines; format: in vivo; conditions: BALB/c mice, thyroglobulin and BSA conjugates ~200 ug i.m. day 0 and 14 in incomplete Freund's adjuvant; bladder inoculation 10^8 CFU homologous piliated strain; renal/bladder colonization at 48 hours; protection = >90% of cohort no growth and none >500 CFU per 0.1 gram
Method: The intravesicular BALB/c experimental model of pyelonephritis and cystitis, as originally described by O'Hanley, was employed to evaluate the protective capacity of structural pilin synthetic peptide conjugate vaccines to prevent subsequent renal and/or bladder colonization by homologous piliated strains at 48 hours after bacterial bladder inoculation. Cohorts of 20 mice per group were vaccinated via intramuscular administration on two occasions with the experimental thyroglobulin and bovine serum albumin conjugate pilin A vaccines (i.e., day 0 and day 14). Each intramuscular dose of experimental vaccine consisted of ^˜200 ug in 100 ul saline emulsified in 100 ul incomplete Freund's adjuvant. Control vaccines consisted of thyroglobulin and bovine serum albumin emulsified in saline and incomplete Freund's adjuvant. These control vaccines were administered in similar fashion and schedule as the experimental vaccines. Challenge for pilin A vaccinated mice entailed bladder inoculation of 10^8 CFU of an Escherichia coli strain that expressed homologous pili. In contrast, the cohort size for control animals was 5 per challenge strain. The table below summarizes the challenge strategy.
Protection against subsequent renal colonization and bladder colonization by the challenge strain was defined by >90% of the experimental animals in a cohort (i.e., 18 of 20 vaccinated experimental mice) having no bacterial growth from aliquots of homogenized whole right kidney and aliquots of homogenized whole bladders and none of the experimental animals having heavy bacterial growth from the challenge strain in renal or bladder specimens (viz., the absence of ++++ colonization density or >500 CFU of the challenge strain per 0.1 gram of renal or bladder tissue) compared to heavy growth of the challenge strain in both renal and bladder specimens (++++ colonization density or >500 CFU per 0.1 gm of renal or bladder tissue) by the challenge strain in >80% of control animals (i.e. >4 of 5 control mice).

AKFGGMGAKKG (also: conjugated to carrier protein) [F13 structural pilin peptide conjugate vaccine]
protection in experimental pyelonephritis [1]: protective

IPEGQGKVT (also: conjugated to thyroglobulin or BSA) [F12 pilin A synthetic peptide conjugated to thyroglobulin or bovine serum albumin]
Homologous Protection [2]: Yes

IPQGQGKVTFNGTV (also: conjugated to carrier protein) [F11 pilin A synthetic peptide conjugate vaccine]
Homologous Protection [2]: Yes

NFKKAAGGGGAKT (also: conjugated to thyroglobulin or BSA) [F72 pilin A synthetic peptide conjugated to thyroglobulin or bovine serum albumin]
Homologous Protection [2]: Yes

NFKKAATPGGAAKT (also: conjugated to thyroglobulin or BSA) [F9 pilin A synthetic peptide conjugated to thyroglobulin or bovine serum albumin]
Homologous Protection [2]: Yes

NFKQLQGGAAKKG (also: conjugated to thyroglobulin or BSA) [F71 pilin A synthetic peptide conjugated to thyroglobulin or bovine serum albumin]
Homologous Protection [2]: Yes

NGGTVHFKGEVVN (also: conjugated to thyroglobulin or BSA) [F1C structural pilin synthetic peptide conjugated to thyroglobulin or bovine serum albumin]
Homologous Protection [2]: Yes

PQGQGEVA (also: conjugated to thyroglobulin or BSA) [F71 pilin A synthetic peptide conjugated to thyroglobulin or bovine serum albumin]
Homologous Protection [2]: Yes

PQGQGEVT (also: conjugated to thyroglobulin or BSA) [F71 pilin A synthetic peptide conjugated to thyroglobulin or bovine serum albumin]
Homologous Protection [2]: Yes

PQGQGKVT (also: conjugated to carrier protein) [F72 and F13 pilin A synthetic peptide conjugate vaccine]
protection in experimental pyelonephritis [1]: protective | Homologous Protection [2]: Yes

TTVNGGTVH (also: conjugated to carrier protein) [F9 pilin A synthetic peptide conjugate vaccine]
Homologous Protection [2]: Yes

TTVTVNGGTVHF (also: conjugated to thyroglobulin or BSA) [F1 structural pilin synthetic peptide conjugated to thyroglobulin or bovine serum albumin]
Homologous Protection [2]: Yes
